The subject of this experiment is Plasmodium berghei. As to the kind of experiment: Luciferase/luciferin-expressing antifolate-resistant parasites were used to infect a culture of HepG2 cells that were pre-incubated with compounds. Infected hepatocytes emit light due to the luciferase reaction. Assay results are presented as the percent inhibition of light emission compared to control. […]. The class given is functional. To be noted: sporozoite; for IC90: read-out: LUCIFERASE INFECTION ASSAY - IC90.

For `Fc1ccc(C(CCNCc2ccccn2)c2ccc(Cl)cc2)cc1` (configuration not stated), the IC90 (in general, the point of the concentration-response curve where the effect stands at 90%) is over 9.3 µM. The IC50 – broadly, the concentration at which inhibition is half-maximal – (PBLUC_HILL_SLOPE 1.42, PBLUC_R_SQUARED 0.0971, read-out: LUCIFERASE INFECTION ASSAY - IC50) is 5.49 µM.
Consider `O=C(Nc1ccc(N2CCCCCC2)cc1)c1ccc[nH]1`, for which the IC90 was determined as 2.88 µM. The half-maximal inhibitory concentration (IC50) (PBLUC_HILL_SLOPE 1.36, PBLUC_R_SQUARED 0.768, read-out: LUCIFERASE INFECTION ASSAY - IC50) worked out at 0.569 µM.
On to `CC(C)(C)c1ccc(Oc2ccc(N)cc2)cc1`, for which the IC90 worked out at 4.63 µM. For the same molecule, the IC50 (PBLUC_HILL_SLOPE 1.38, PBLUC_R_SQUARED 0.811, read-out: LUCIFERASE INFECTION ASSAY - IC50) was determined as 0.942 µM.
Consider `CCOCCCNC(=O)/C(C#N)=C/c1ccc([N+](=O)[O-])o1`, for which the IC90 is over 10 µM. Under “PBLUC_HILL_SLOPE 1.42, PBLUC_R_SQUARED 0.135, read-out: LUCIFERASE INFECTION ASSAY - IC50”, the 50% inhibitory concentration (IC50) is over 10 µM.
Regarding `CN1N=C2c3ccccc3CCC2C1c1ccc(F)cc1` (configuration not stated), the IC90 was determined as 5.64 µM. For the same molecule, the 50% inhibitory concentration (IC50) (PBLUC_HILL_SLOPE 1.42, PBLUC_R_SQUARED 0.884, read-out: LUCIFERASE INFECTION ASSAY - IC50) is 1.2 µM.
Turning to `CC(=O)Nc1ccc(Oc2ccnc3cc(Cl)ccc23)cc1`, the IC90 is over 10 µM. In addition, the IC50 (PBLUC_HILL_SLOPE 1.43, PBLUC_R_SQUARED 0.691, read-out: LUCIFERASE INFECTION ASSAY - IC50) was determined as 3.48 µM.
Regarding `Cc1cc(/C=C/C(=O)Nc2nccs2)c(C)n1-c1ccccc1`, the IC90 is 3.27 µM. Moreover, where the note is “PBLUC_HILL_SLOPE 1.4, PBLUC_R_SQUARED 0.69, read-out: LUCIFERASE INFECTION ASSAY - IC50”, the IC50 came to 0.681 µM.
On to `CNc1nc2cnc(Nc3ccc(OC(C)C)cc3)cc2n1-c1cc(OC)c(OC)c(OC)c1`, for which the IC90 is over 10 µM. Besides, the IC50 (PBLUC_HILL_SLOPE 1.37, PBLUC_R_SQUARED 0.322, read-out: LUCIFERASE INFECTION ASSAY - IC50) came out at 5.86 µM.
Turning to `Clc1cccc(-c2cnn3c(NCCCN4CCOCC4)ccnc23)c1`, the IC90 was over 8.87 µM. Further, the IC50 (PBLUC_HILL_SLOPE 1.37, PBLUC_R_SQUARED 0.567, read-out: LUCIFERASE INFECTION ASSAY - IC50) came out at 3.66 µM.
Consider `COc1ccc(C2c3ccsc3CCN2S(=O)(=O)c2ccc(F)c(Cl)c2)cc1` (configuration not stated), for which the IC90 was over 7.54 µM. In addition, under “PBLUC_HILL_SLOPE 1.37, PBLUC_R_SQUARED 0.631, read-out: LUCIFERASE INFECTION ASSAY - IC50”, the half-inhibitory concentration (IC50) is 3.09 µM.
Turning to `CC(C)Nc1cc(-c2ccccc2)nc2c(-c3ccccc3)cnn12`, the IC90 was over 10 µM. The IC50 (PBLUC_HILL_SLOPE 1.35, PBLUC_R_SQUARED 0.594, read-out: LUCIFERASE INFECTION ASSAY - IC50) was found to be 2.01 µM.
For the molecule `Cc1ccc(OCC(=O)Nc2cc(NC(=O)c3ccco3)ccc2C)c(C)c1`, the IC90 is 8.08 µM. In addition, the IC50 (PBLUC_HILL_SLOPE 1.36, PBLUC_R_SQUARED 0.771, read-out: LUCIFERASE INFECTION ASSAY - IC50) worked out at 1.61 µM.
Take `Cc1cc(C(=O)N(C)Cc2nc(=O)c3ccccc3[nH]2)c(C)n1-c1ccccc1F`: the IC90 is over 10 µM. Also, for the setting “PBLUC_HILL_SLOPE 1.44, PBLUC_R_SQUARED 0.478, read-out: LUCIFERASE INFECTION ASSAY - IC50”, the IC50 was found to be 6.97 µM.
As to `C=CCN(C(=O)c1sc2nc3n(c(=O)c2c1C)CCCCC3)c1nc2c(s1)CCCC2`, the IC90 was over 10 µM. Besides, the IC50 (PBLUC_HILL_SLOPE 1.42, PBLUC_R_SQUARED 0.275, read-out: LUCIFERASE INFECTION ASSAY - IC50) was over 10 µM.
Turning to `Cc1cc(Cl)ccc1S(=O)(=O)N(Cc1ccncc1)C1CC1`, the IC90 was found to be 7.99 µM. Moreover, the IC50 (PBLUC_HILL_SLOPE 1.42, PBLUC_R_SQUARED 0.462, read-out: LUCIFERASE INFECTION ASSAY - IC50) worked out at 1.69 µM.
With `COc1cc(/C=C/C(=O)c2ccc3[nH]c(=O)[nH]c3c2)cc(Cl)c1OC(F)F`, the IC90 was over 10 µM. Also, the half-maximal inhibitory concentration (IC50) (PBLUC_HILL_SLOPE 1.43, PBLUC_R_SQUARED 0.612, read-out: LUCIFERASE INFECTION ASSAY - IC50) is 6.07 µM.
As to `COc1ccc(NC(=O)c2cccc3c[nH]nc23)cc1Cc1ccccc1`, the IC90 was determined as 9.56 µM. Also, the IC50 (PBLUC_HILL_SLOPE 1.42, PBLUC_R_SQUARED 0.679, read-out: LUCIFERASE INFECTION ASSAY - IC50) was 2.02 µM.
With `CCOC(=O)/C(=N\Nc1cccc(C(F)(F)F)c1)NC(C)c1ccccc1` (configuration not stated), the IC90 is over 10 µM. For the setting “PBLUC_HILL_SLOPE 1.36, PBLUC_R_SQUARED 0.117, read-out: LUCIFERASE INFECTION ASSAY - IC50”, the IC50 was over 10 µM.
Turning to `O=C(Nc1ccc([N+](=O)[O-])cc1Br)C(Nc1ccc2c(c1)OCCO2)c1ccccc1` (configuration not stated), the IC90 was over 10 µM. Further, under “PBLUC_HILL_SLOPE 1.35, PBLUC_R_SQUARED 0.497, read-out: LUCIFERASE INFECTION ASSAY - IC50”, the IC50 was determined as 2.53 µM.
`NC(=O)c1cc(-c2cs/c(=N\c3ccccc3F)n2C2CCCC2)ccc1O`: the IC90 was over 10 µM. Moreover, the IC50 (PBLUC_HILL_SLOPE 1.38, PBLUC_R_SQUARED 0.237, read-out: LUCIFERASE INFECTION ASSAY - IC50) came to 4.32 µM.
As for `Cc1c(C)n(CCCN(C)C)c2ncn3nc(-c4ccc(N(C)C)cc4)nc3c12`, the concentration for an effect of 90% (IC90) was over 8.43 µM. Besides, the IC50 (PBLUC_HILL_SLOPE 1.37, PBLUC_R_SQUARED 0.575, read-out: LUCIFERASE INFECTION ASSAY - IC50) was found to be 3.73 µM.
With `CC(=O)NCc1ccc(C(=O)Nc2ccccc2O)cc1`, the IC90 stood at 9.91 µM. Further, the IC50 (PBLUC_HILL_SLOPE 1.36, PBLUC_R_SQUARED 0.725, read-out: LUCIFERASE INFECTION ASSAY - IC50) was 1.97 µM.
For the molecule `CNc1nc(SCCS(=O)(=O)c2ccccc2)nc2ccccc12`, the IC90 turned out to be 6.83 µM. Besides, the half-maximal inhibitory concentration (IC50) (PBLUC_HILL_SLOPE 1.42, PBLUC_R_SQUARED 0.718, read-out: LUCIFERASE INFECTION ASSAY - IC50) was 1.45 µM.
On to `O=c1[nH]nc(CSc2ccccn2)c2ccccc12`, for which the IC90 was over 12.3 µM. For the same molecule, the IC50 (PBLUC_HILL_SLOPE 1.43, PBLUC_R_SQUARED 0.267, read-out: LUCIFERASE INFECTION ASSAY - IC50) turned out to be 10 µM.
As to `CCn1c(C(=O)OC)c(NC(=O)C2CCOC2)c2cc(NCC(C)c3ccccc3)cnc21` (configuration not stated), the IC90 was over 7.32 µM. Also, where the note is “PBLUC_HILL_SLOPE 1.36, PBLUC_R_SQUARED 0.443, read-out: LUCIFERASE INFECTION ASSAY - IC50”, the half-inhibitory concentration (IC50) turned out to be 5.53 µM.
On to `CNC(=O)c1ccc(CN(C2CC2)S(=O)(=O)c2ccc(C(F)(F)F)cc2)cc1`, for which the IC90 was over 10 µM. For the same molecule, for the setting “PBLUC_HILL_SLOPE 1.42, PBLUC_R_SQUARED 0.391, read-out: LUCIFERASE INFECTION ASSAY - IC50”, the IC50 was determined as 3.3 µM.
Consider `c1ccc(NCCNc2nc(-c3ccncc3)nc3ccccc23)nc1`, for which the IC90 is over 10 µM. For the same molecule, the IC50 (PBLUC_HILL_SLOPE 1.36, PBLUC_R_SQUARED 0.325, read-out: LUCIFERASE INFECTION ASSAY - IC50) was determined as 5.09 µM.
`O=C(Nc1ccc(Oc2cc(C(F)(F)F)cc(C(F)(F)F)c2)cc1)c1cccs1`: the IC90 was 0.356 µM. In addition, the IC50 (PBLUC_HILL_SLOPE 1.36, PBLUC_R_SQUARED 0.733, read-out: LUCIFERASE INFECTION ASSAY - IC50) came out at 0.0707 µM.
With `Cn1cc(CN2CCC3(CC2)C(=O)N(CCCc2cccnc2)C(=O)N3Cc2ccccc2)c2ccccc21`, the IC90 was over 6.33 µM. Further, the IC50 (PBLUC_HILL_SLOPE 1.35, PBLUC_R_SQUARED 0.738, read-out: LUCIFERASE INFECTION ASSAY - IC50) amounted to 3.23 µM.
In the case of `Cc1ccc(OCc2n[nH]c(=S)n2C2CCCCC2)c2c1CCC2`, the IC90 was over 9.61 µM. The IC50 (PBLUC_HILL_SLOPE 1.42, PBLUC_R_SQUARED 0.362, read-out: LUCIFERASE INFECTION ASSAY - IC50) is over 9.61 µM.
Turning to `CCN(CC)CCSc1nc(-c2ccc(C)cc2)nc2c1COC(C)(C)C2`, the IC90 is over 8.56 µM. Also, for the setting “PBLUC_HILL_SLOPE 1.36, PBLUC_R_SQUARED 0.0849, read-out: LUCIFERASE INFECTION ASSAY - IC50”, the IC50 is over 8.56 µM.
For `O=C(Nc1nccs1)c1ccc(N2CCCCCC2)nc1`, the IC90 is over 10 µM. For the same molecule, where the note is “PBLUC_HILL_SLOPE 1.4, PBLUC_R_SQUARED 0.612, read-out: LUCIFERASE INFECTION ASSAY - IC50”, the IC50 was determined as 2.36 µM.
Regarding `OC(c1cn2cc(-c3ccccc3)nc2s1)(C(F)(F)F)C(F)(F)F`, the IC90 is 1.73 µM. The IC50 (PBLUC_HILL_SLOPE 1.37, PBLUC_R_SQUARED 0.781, read-out: LUCIFERASE INFECTION ASSAY - IC50) came to 0.348 µM.
Regarding `COc1cccc(N2CCN(CC(=O)c3c[nH]c4ccccc34)CC2C)c1` (configuration not stated), the 90% effect concentration (IC90) is over 9.08 µM. For the same molecule, the IC50 (PBLUC_HILL_SLOPE 1.43, PBLUC_R_SQUARED 0.653, read-out: LUCIFERASE INFECTION ASSAY - IC50) is 4.63 µM.
Consider `COc1ccc(-c2[nH]c3ccc(F)cc3c2CCC(=O)NCc2nnc3ccccn23)cc1`, for which the IC90 is over 10 µM. Also, the IC50 (PBLUC_HILL_SLOPE 1.44, 1.44, PBLUC_R_SQUARED 0.412, 0.538, read-out: LUCIFERASE INFECTION ASSAY - IC50) was found to be 5.36 µM.
For `c1ccc(Nc2nc(-c3ccc4c(c3)CCC4)cs2)nc1`, the IC90 was over 10 µM. Further, the IC50 (PBLUC_HILL_SLOPE 1.40, 0.464, PBLUC_R_SQUARED 0.303, 0.681, read-out: LUCIFERASE INFECTION ASSAY - IC50) was determined as 4.84 µM.

Values taken from ChEMBL document CHEMBL4483862, “Open-source discovery of chemical leads for next-generation chemoprotective antimalarials” (2018).
